Consider five compounds from publication PMC3224213, “Bacterial membrane activity of α-peptide/β-peptoid chimeras: Influence of amino acid composition and chain length on the activity against different bacterial strains” (BMC Microbiology, 2011).

Test [1] has as its system S. aureus. In words: ATP leakage bioluminescence assay. The format is cell-based, Staphylococcus aureus. As to conditions: for intracellular ATP concentration: HEPES buffer pH 7.0, two independent experiments; for dose for the immediate maximum ATP release: 500 μg/mL expressed in μM; for minimum chimera dose for the maximum immediate ATP release: doses 100, 250, 500, 1000 μg/mL, immediate release only, data not shown. Here is the method: (§1) Pore formation as caused by peptide addition was determined by measuring ATP leakage from the bacterial cell using a bioluminescence assay. The assay was used to estimate differences between sub-typical chimeras 1, 2 and 3 on S. aureus and S. marcescens and to evaluate the effect of chain length of mixed type chimeras 4a, 4b and 4c on S. aureus. In brief, bacteria were grown in TSB at 37°C for 24 hours and then re-inoculated in TSB at 37°C for 6-8 hours until an absorbance at 546 nm of 2.5 for S. aureus and 2.0 for S. marcescens and then harvested (10 min at 2,000 × g). The bacteria were grown to a high absorbance since a high concentration of bacteria was necessary in order to get a measurable response in the ATP leakage assay. Cells were washed once in 50 mM potassium phosphate buffer (pH 7.0) and once in 50 mM HEPES buffer (pH 7.0), before the pellet was resuspended in HEPES buffer to an OD546 ~ 10, and then stored on ice. Before chimera addition bacteria were pre-incubated with 0.2% (w/v) glucose to energize the cells. In general a chimera dose of 1000 μg/mL (corresponding to 280-552 μM for all chimeras) was used for all assays; however, for determining dose response curves additional doses of 100 (28-55 μM), 250 (71-137 μM) and 500 (140-276 μM) μg/mL were tested, and only the immediate release was noted. Total ATP and extracellular ATP were determined with a luminometer […]. Intracellular volumes of S. aureus and S. marcescens (0.85 μm^3 and 1.7 μm^3, respectively) were subtracted from the total volume before calculating the extracellular ATP concentration; the intracellular ATP concentration could then be calculated from this and the total ATP. ATP leakage kinetics was determined on a bacterial suspension prepared as above. Samples were taken at time 0, 5, 10, 20, 30 and 60 minutes and viable counts determined. Both the ATP leakage assay and killing kinetics performed under the same assay conditions were performed in two independent experiments.

In test [2] the test system is S. marcescens. Put plainly: ATP leakage bioluminescence assay. The format is cell-based, Serratia marcescens. The conditions noted are these: 1000 μg/mL chimera. Here is the method: as §1
The test system of test [3] is S. aureus. Put plainly: Killing by chimera with or without EDTA pre-treatment. Type of test: cell-based, Staphylococcus aureus. The text has this: (§2) Although there was no systematic difference in the MIC values between Gram-positive and -negative bacteria, we speculated that the Gram-negative outer membrane could act as a barrier to the penetration of AMPs, since polymyxin B resistance in S. marcescens has been linked to induced changes in the amount and composition of lipopolysaccharide (LPS) in the outer membrane. Moreover, similar resistance-conferring membrane alterations have also been seen for other bacteria in response to polymyxin B treatment. Accordingly, we studied how a membrane-destabilizing pre-treatment of S. marcescens, E. coli and S. aureus with the divalent metal cation-chelating agent EDTA would affect the killing caused by chimera 1. In these experiments we used a non-lethal 0.5 mM concentration of EDTA together with the non-lethal 1.5 μM concentration of the tested AMP analogue. […] In contrast, cell numbers of both S. marcescens and E. coli were reduced with 4-5 log from an initial value of log ~5.5 within the first 4 hours (not shown) upon treatment with a sub-lethal EDTA concentration together with the chimera.

The subject of a further test is E. coli. The test is described as above. The format is cell-based, Escherichia coli.
Description: as §2

Test [4] deals with S. marcescens. The description is as above. Type of test: cell-based, Serratia marcescens.
Description: as §2

For test [5], the system named is Serratia marcescens ATCC 8100. In words: Killing kinetics (time-kill). The format is cell-based. As to conditions: S. marcescens. As to the method:
(§3) In vitro time-kill curves for chimera 1, 2 and 3 were determined against S. aureus 8325 (MIC μM: chimera 1 5.9; chimera 2 2.8; chimera 3 18.7) and Serratia marcescens ATCC 8100 (MIC μM: chimera 1 46.8; chimera 2 45.5; chimera 3 150.0). These two bacterial strains represent organisms susceptible and tolerant to the chimeras, respectively. The bactericidal effect of the three chimeras was tested at MIC in two independent experiments; additionally the effect of chimera 2 was tested at ¼ and 1/2 times MIC. In brief, a suspension prepared from fresh overnight colonies as described above was transferred to 2 mL PBS or cation-adjusted MHB with chimera added (from a 10 × MIC solution) to give a similar bacterial cell density as employed in the MIC determination; the resulting suspension was then incubated at 37°C, 300 rpm. Samples for colony determination were taken at 0, 1, 2, 4, 6 and 8 hours after addition and transferred to a ten-fold dilution row. Colony counts were determined after incubation for 24 hours at 37°C.

A further test concerns S. aureus 8325. In words: Killing kinetics (time-kill). Type of test: cell-based, Staphylococcus aureus. Here is the method: as §3
Test [6] concerns twelve food-borne and clinical bacterial strains. Type of test: cell-based. As to the method: Initial activity experiments were carried out with twelve strains from seven bacterial species representing common laboratory strains and clinical strains derived from both food-borne and nosocomial infections (Table 1). Stock cultures were stored at -80°C in 4% (w/v) glycerol, 0.5% (w/v) glucose, 2% (w/v) skimmed milk powder and 3% (w/v) tryptone soy powder. All experiments were carried out with bacteria incubated for one night (i.e. approximately 18 hours) at 37°C. Experiments were performed in cation-adjusted Mueller Hinton II broth (MHB) (Becton Dickinson 212322) adjusted to pH 7.4 or Tryptone Soy Broth (TSB) (Oxoid CM0129) for the ATP leakage assays. Brain Heart Infusion (BHI) (CM1135) with agar (VWR 20768.292) 1.5% as gelling agent was used throughout for colony plating.
The Minimum Inhibitory Concentration (MIC) of the chimeras was determined against the spectrum of bacteria using the microdilution method according to guidelines of the Clinical and Laboratory Standards Institute (CLSI). Chimera 1:2 serial dilutions were prepared from 1,024 μg/mL stock solutions to give a final range of 512-0.5 μg/mL in the wells. This corresponds to a final range of 144 to 0.14 μM for the heaviest chimera (i.e. chimera 4c) and of 282 to 0.27 μM for the lightest chimera (i.e. chimera 4a). Colonies grown overnight (i.e. approximately 18 hours) on BHI agar were suspended in 0.9% saline to give a turbidity of 0.13 at OD546 (approximately 1 × 10^8 CFU/mL), and then diluted in MHB pH 7.4 to a final concentration of 5 × 10^5 CFU/mL in each well. Following CLSI guidelines the media for testing of Listeria monocytogenes strains were supplemented with 2.5% lysed horse blood. Polypropylene plates (Nunc 442587) were used to minimize peptide binding and incubation time was 18-20 hours at 37°C. MIC was determined in a minimum of two technical replicates as the lowest concentration of the peptide analogue where no visible growth was found. The Minimum Bactericidal Concentration (MBC) was determined by plating 10 μL of the suspension from the first three wells without growth on BHI agar and incubating these for 24 hours at 37°C. MBC was the lowest concentration at which a 99.9% reduction in CFU/mL was observed. Activity is expressed in μmol/L to enable a direct comparison of analogues with different length (= size).

Test [7] concerns S. aureus. Put plainly: Time-kill under the conditions of the ATP leakage assay. As to conditions: 1000 μg/mL chimera, same conditions as ATP assay, within the first 20 minutes, initial log ~9.5 per mL. The format is cell-based, Staphylococcus aureus. As to the method:
as §1

Where [8] appears, read: 1.5 μM chimera alone, data not shown.
[9] abbreviates: 0.5 mM EDTA and 1.5 μM chimera, within the first 4 hours, initial log ~5.5, not shown.
[10] abbreviates: range over strains, summary of Table 2.

Regarding `CC(=O)N[C@@H](CCCCNC(=N)N)C(=O)N(CCC(=O)N[C@@H](CCCCNC(=N)N)C(=O)N(CCC(=O)N[C@@H](CCCCNC(=N)N)C(=O)N(CCC(=O)N[C@@H](CCCCNC(=N)N)C(=O)N(CCC(=O)N[C@@H](CCCCNC(=N)N)C(=O)N(CCC(=O)N[C@@H](CCCCNC(=N)N)C(=O)N(CCC(N)=O)Cc1ccccc1)Cc1ccccc1)Cc1ccccc1)Cc1ccccc1)Cc1ccccc1)Cc1ccccc1` [Chimera 1], the “ATP leakage (in words)” value in the test on S. aureus [1] (1000 μg/mL chimera) and in the test on S. marcescens [2] was “caused leakage of ATP” throughout. For the same compound, the “intracellular ATP concentration” value was “rapidly approached zero” in the test on S. aureus [1] (1000 μg/mL chimera) and “rapidly approached zero” with S. marcescens [2] (HEPES buffer pH 7.0, two independent experiments). Also, the “extracellular ATP concentration” value in the test on S. aureus [1] (1000 μg/mL chimera, during the first minutes, HEPES buffer pH 7.0, OD546 ~ 10, two independent experiments) is listed as ~ 20 μM; in the test with S. marcescens [2] (during the first minutes, HEPES buffer pH 7.0, OD546 ~ 10, two independent experiments), ~ 5 μM. Moreover, the “reduction in the number of viable cells, chimera alone” value in the test with S. aureus [3] (setting [8]) amounted to 0.5 log; in the test on E. coli (setting [8]) it was 1.5 log; in the test on S. marcescens [4] (setting [8]), 1.5 log. Moreover, in the test with S. aureus [3] (0.5 mM EDTA and 1.5 μM chimera), the “viable cells, EDTA then chimera versus chimera only” value is listed as “No discernable difference”. Besides, the “reduction of cell numbers, EDTA together with chimera” value with E. coli (setting [9]) and with S. marcescens [4] (setting [9]) was 4-5 log in each case.

On to `CC(=O)N[C@@H](CCCCNC(=N)N)C(=O)N(CCC(=O)N[C@@H](CCCCNC(=N)N)C(=O)N(CCC(=O)N[C@@H](CCCCNC(=N)N)C(=O)N(CCC(=O)N[C@@H](CCCCNC(=N)N)C(=O)N(CCC(=O)N[C@@H](CCCCNC(=N)N)C(=O)N(CCC(=O)N[C@@H](CCCCNC(=N)N)C(=O)N(CCC(N)=O)[C@@H](C)c1ccccc1)[C@@H](C)c1ccccc1)[C@@H](C)c1ccccc1)[C@@H](C)c1ccccc1)[C@@H](C)c1ccccc1)[C@@H](C)c1ccccc1` [Chimera 2], for which the “decrease in the number of viable bacteria” value in test [5] (at MIC in MHB, within the first hour, 37°C, two independent experiments) is on record as 2 log. The “viable cells after treatment in PBS” value in test [5] (at MIC in PBS, 37°C) is given as “no viable cells remained after the first hour”. The “effect on cell number at ¼ MIC” value in [5] (¼ MIC in MHB) is reported as “reduction in cell number”. In addition, the “number of viable cells at MIC in MHB” value in the test with S. aureus 8325 (at MIC in MHB, 37°C, two independent experiments) was “did not decrease until after 6 hours”. In addition, in the test on S. aureus 8325 (at MIC in PBS, after 4 hours), the “decrease in viable cell numbers” value came out at 2 log. Also, the “ATP leakage (in words)” value with S. aureus [1] (1000 μg/mL chimera) and with S. marcescens [2] was “caused leakage of ATP” in each case.

`CC(=O)N[C@@H](CCCCN)C(=O)N(CCC(=O)N[C@@H](CCCCNC(=N)N)C(=O)N(CCC(=O)N[C@@H](CCCCN)C(=O)N(CCC(=O)N[C@@H](CCCCNC(=N)N)C(=O)N(CCC(N)=O)[C@@H](C)c1ccccc1)[C@@H](C)c1ccccc1)[C@@H](C)c1ccccc1)[C@@H](C)c1ccccc1` [Chimera 4a]: the “MIC values times higher than those of chimera 4c” value in test [6] (ratio of MIC to that of chimera 4c, over the strains of Table 2) was 15-70 times. For the same compound, in the test with S. aureus [1], the “dose for the immediate maximum ATP release” value amounted to 276 µM and the “minimum chimera dose for the maximum immediate ATP release” value was determined as 500 µg/mL. In the test on S. aureus [1] (1000 μg/mL chimera), the “immediate ATP release” value was “approximately 15 μM” and the “intracellular ATP concentration” value is listed as “approx. 5 μM”. Further, the “reduction in number of viable cells” value in the test on S. aureus [7] is recorded as “no killing was observed”.

Take `CC(=O)N[C@@H](CCCCN)C(=O)N(CCC(=O)N[C@@H](CCCCNC(=N)N)C(=O)N(CCC(=O)N[C@@H](CCCCN)C(=O)N(CCC(=O)N[C@@H](CCCCNC(=N)N)C(=O)N(CCC(=O)N[C@@H](CCCCN)C(=O)N(CCC(=O)N[C@@H](CCCCNC(=N)N)C(=O)N(CCC(N)=O)[C@@H](C)c1ccccc1)[C@@H](C)c1ccccc1)[C@@H](C)c1ccccc1)[C@@H](C)c1ccccc1)[C@@H](C)c1ccccc1)[C@@H](C)c1ccccc1` [Chimera 4b]: in the test on S. aureus [1] (1000 μg/mL chimera), the “ATP leakage (in words)” value is “same leakage pattern as induced by chimera 4a”. Further, the “reduction in number of viable cells” value in the test on S. aureus [7] is “no killing was observed”.

As to `CC(=O)N[C@@H](CCCCN)C(=O)N(CCC(=O)N[C@@H](CCCCNC(=N)N)C(=O)N(CCC(=O)N[C@@H](CCCCN)C(=O)N(CCC(=O)N[C@@H](CCCCNC(=N)N)C(=O)N(CCC(=O)N[C@@H](CCCCN)C(=O)N(CCC(=O)N[C@@H](CCCCNC(=N)N)C(=O)N(CCC(=O)N[C@@H](CCCCN)C(=O)N(CCC(=O)N[C@@H](CCCCNC(=N)N)C(=O)N(CCC(N)=O)[C@@H](C)c1ccccc1)[C@@H](C)c1ccccc1)[C@@H](C)c1ccccc1)[C@@H](C)c1ccccc1)[C@@H](C)c1ccccc1)[C@@H](C)c1ccccc1)[C@@H](C)c1ccccc1)[C@@H](C)c1ccccc1` [Chimera 4c], in test [6] (setting [10]), the “MIC values against the clinical strains of E. coli, S. aureus and K. pneumoniae” value is 2.2 to 9.0 µM; the “MIC values against the food-borne pathogens L. monocytogenes and Vibro spp.” value fell in the range of 1.1 to 2.2 µM. In addition, in the test with S. aureus [1], the “dose for the immediate maximum ATP release” value was 140 µM and the “minimum chimera dose for the maximum immediate ATP release” value is 500 µg/mL. In the test on S. aureus [1] (1000 μg/mL chimera), the “immediate ATP release” value was “approximately 15 μM” and the “intracellular ATP concentration” value is “immediately depleted of intracellular ATP”. In addition, in the test with S. aureus [7], the “reduction in number of viable cells” value came to 2 log.
